Reference: patent US20170105949A1, “METHOD FOR IMPROVING FEED EFFICIENCY IN RUMINANTS” (Rivalea (Australia) Pty Ltd, priority 2014, published 2017)
Structures can show the parent of a compound that is named as a salt.

Key:
[1] = Growth performance and feed efficiency of lambs fed pelleted test diets ad libitum (live weight, feed intake by disappearance); format: in vivo, lambs (Border Leister x Merino)
Excerpt: Lambs were used in this study as the model animal representing ruminants. Previous research has shown similar growth performance, feed efficiency and carcass benefits from the inclusion of Ractopamine in cattle and lamb diets. Given this, it is expected that the outcomes from feeding RAC and caffeine in combination to finishing lambs can be translated to expected results in other ruminants such as cattle. The surprising results found in lambs show promise for use of RAC and caffeine in other ruminants, particularly cattle where RAC is an approved animal feed additive.
(§1) A total of 36 male lambs (Border Leister x Merino) were selected at approximately 14 weeks of age and housed in pens of two lambs per pen in a naturally ventilated shed. Lambs were fed a commercial lamb finisher diet for a 14 day acclimatisation period prior to the start of the test period. In addition, all lambs were offered 250 g lucerne hay per day as roughage. At the start of the test period, lambs were individually weighed (average weight 29.8 kg±0.29 kg), ear tagged and the pen randomly allocated to one of three dietary treatments:
(§2) A: Control (no RAC or Caffeine for the entire 56 day test period)
(§3) B: RAC (20 ppm (20 g/t) RAC for the entire 56 day test period)
(§4) C: RAC +Caffeine (20 ppm (20 g/t)) RAC offered from day 0 to day 21, followed by 20 ppm (20 g/t) RAC plus 0.5 kg/t caffeine offered from day 21 to day 56).
(§5) Diets were pelleted and fed ad libitum for the entire test period, while water was also freely available at all times. In addition to the pelleted test feeds, each lamb was offered 200 g lucerne hay per day (floor fed) as an additional source of roughage.
Lambs were shorn prior to entry to the facility to minimise the impact of wool growth on rate of gain measurements and body composition analysis. Individual weights were recorded periodically throughout the test period (Days 0, 21, 35 and 56), while intake of the pelleted test diets was measured by feed disappearance and feed efficiency subsequently calculated.
No attempt was made to measure feed residues of the lucerne hay as the lambs consumed this rapidly and the volume of wastage was considered insignificant.
(§6) Data were subjected to an analysis of variance (ANOVA) for the main effect of dietary treatment. Data for treatments B and C were pooled for the initial 21 day feeding period as both treatment groups were fed the same diet during this time period. The experimental unit for all analyses was the pen of ruminant. All analyses were performed using Genstat 16th Edition (Payne RW, Harding SA, Genstat Committee 2005 Genstat release 8 reference manual, USN International: Oxford UK).

[2] = Body composition of lambs by dual energy x-ray absorptiometry (DXA) scanning; format: in vivo, lambs (Border Leister x Merino)
Excerpt: as §1, §2, §3, §4, §5
Dual energy x-ray absorptiometry (DXA) scanning was undertaken using a Hologic X-Ray Bone Densitometer (Hologic Inc, Waltham, Mass., USA) at day 21 and day 56 of the test period. All lambs were weighed on the day of scanning (prior to anaesthesia). Lambs were sedated using xylazine (administered intramuscularly) and anaesthetised with ketamine intra venously under veterinary direction. Once anaesthetised, lambs were positioned in a ventral recumbency with their hind legs extended and forelegs positioned caudally to accommodate the DXA regional analysis software. The whole body scan mode was used for each animal, with the length of the scan adjusted for the length of the lamb. Following DXA analysis, lambs were monitored by a veterinarian for full recovery from anaesthesia. As the DXA software generates body composition estimates for humans, the raw DXA output from each scan was adjusted for lambs using equations developed by comparisons with actual empty body chemical composition (Hunter 2000).
as §6

[3] = RAC 20 ppm throughout, RAC + Caffeine: 0.5 kg/t caffeine added from day 21, day 0 weight as covariate
[4] = RAC 20 ppm, RAC + Caffeine: 20 ppm RAC plus 0.5 kg/t caffeine from day 21
[5] = day 0 to day 21, 20 ppm RAC in diet, treatments B and C pooled
[6] = entire test period, RAC 20 ppm, RAC + Caffeine: caffeine 0.5 kg/t added day 21-56
[7] = DXA, RAC 20 ppm day 0-56, RAC + Caffeine: caffeine 0.5 kg/t added day 21-56, live weight day 56 as covariate
[8] = DXA, RAC treatment groups pooled, 20 ppm RAC day 0-21
[9] = DXA, both groups 20 ppm RAC day 0-21, live weight day 21 as covariate

CC(CCc1ccc(O)cc1)NCC(O)c1ccc(O)cc1 (racemic) [RAC, Ractopamine hydrochloride]
Live weight day 21 ([1]; 20 ppm RAC in diet day 0-21, treatments B and C pooled, day 0 weight as covariate): 37.9 kg
Live weight Day 35 [1, 3]: 43.6 kg
Live weight Day 56 [1, 3]: 47.3 kg
ADFI Day 21-35 [1, 4]: 1.77 kg/day
ADFI Day 21-56 [1, 4]: 1.82 kg/day
ADFI Day 35-56 [1, 4]: 1.77 kg/day
ADG Day 21-35 [1, 4]: 0.380 kg/day
ADG Day 21-56 [1, 4]: 0.266 kg/day
ADG Day 35-56 [1, 4]: 0.177 kg/day
FCE Day 21-35 [1, 4]: 0.214 gain/feed
FCE Day 21-56 [1, 4]: 0.144 gain/feed
FCE Day 35-56 [1, 4]: 0.113 gain/feed
ADFI [1, 5]: 1.40 kg/day
ADG [1, 5]: 0.388 kg/day
FCE (gain/feed) [1, 5]: 0.28 gain/feed
ADFI Day 0-56 [1, 6]: 1.67 kg/day
ADG Day 0-56 [1, 6]: 0.317 kg/day
FCE Day 0-56 [1, 6]: 0.189 gain/feed
Live weight Day 21 ([1]; three treatments, both groups 20 ppm RAC day 0-21, day 0 weight as covariate): 38.2 kg
Adipose tissue (%) Day 56 [2, 7]: 22.90%
Bone mineral content (%) Day 56 [2, 7]: 3.01%
Lean tissue (%) Day 56 [2, 7]: 72.64%
adipose tissue at day 21, pooled data [2, 8]: 19.24%
percentage of lean tissue at day 21, pooled data [2, 8]: 76.83%
Adipose tissue (%) Day 21 [2, 9]: 19.18%
Bone mineral content (%) Day 21 [2, 9]: 2.95%
Lean tissue (%) Day 21 [2, 9]: 76.84%
Feed efficiency for lean tissue deposition (kg lean tissue gain: kg feed intake) Day 21-56 [2, 4]: 0.073 kg lean tissue gain: kg feed intake
